Measured values: BigSolDB 2.1

Conditions: in isopropanol

C=NCC#N
Conditions	solubility (mole fraction)
278.15 K	0.00069
283.15 K	0.000826
288.15 K	0.00106
293.15 K	0.00129
298.15 K	0.00153
303.15 K	0.00188
308.15 K	0.00229
313.15 K	0.00279
318.15 K	0.00338
323.15 K	0.00411
